What was measured:
[1] = tested on: RIN5F (Rat Insulinoma) cells; experiment: In vitro glucose-dependent insulin secretion (RIN5F cell assay screening protocol); type: cell-based; conditions: 16.7 mM glucose load
Human GLP-1 receptor = biological target: T1, Human GLP-1 receptor (Homo sapiens, UniProt P43220); experiment: In vitro Human GLP-1 R agonist activity (cyclic AMP determination) in CHO/human GLP1R cells; type: cell-based
T1 construct: The full-length cDNA was cloned in pcDNA3.1(+); expressed in transfected cells
T1 sequence (P43220 24-463): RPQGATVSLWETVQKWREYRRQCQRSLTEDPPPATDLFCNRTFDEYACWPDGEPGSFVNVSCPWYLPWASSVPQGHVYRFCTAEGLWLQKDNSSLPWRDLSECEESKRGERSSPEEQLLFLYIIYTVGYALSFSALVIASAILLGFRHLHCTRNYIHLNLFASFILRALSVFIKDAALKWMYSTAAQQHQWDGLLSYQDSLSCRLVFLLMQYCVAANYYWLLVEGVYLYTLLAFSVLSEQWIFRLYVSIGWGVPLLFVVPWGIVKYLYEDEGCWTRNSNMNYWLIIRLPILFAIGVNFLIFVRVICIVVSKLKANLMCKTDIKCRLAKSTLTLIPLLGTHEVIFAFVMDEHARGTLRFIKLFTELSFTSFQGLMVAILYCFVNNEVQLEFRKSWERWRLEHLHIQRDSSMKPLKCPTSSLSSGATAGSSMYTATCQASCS

human glucagon receptor = biological target: T2, human glucagon receptor (Homo sapiens, UniProt P47871); experiment: In vitro human glucagon antagonist activity (inhibition of cAMP production) in CHO/human glucagon R cells; type: cell-based; conditions: with saturated concentration of glucagon peptide
T2 construct: The full-length cDNA was cloned in pcDNA3.1 (Invitrogen); expressed in transfected cells
T2 sequence (P47871 26-477): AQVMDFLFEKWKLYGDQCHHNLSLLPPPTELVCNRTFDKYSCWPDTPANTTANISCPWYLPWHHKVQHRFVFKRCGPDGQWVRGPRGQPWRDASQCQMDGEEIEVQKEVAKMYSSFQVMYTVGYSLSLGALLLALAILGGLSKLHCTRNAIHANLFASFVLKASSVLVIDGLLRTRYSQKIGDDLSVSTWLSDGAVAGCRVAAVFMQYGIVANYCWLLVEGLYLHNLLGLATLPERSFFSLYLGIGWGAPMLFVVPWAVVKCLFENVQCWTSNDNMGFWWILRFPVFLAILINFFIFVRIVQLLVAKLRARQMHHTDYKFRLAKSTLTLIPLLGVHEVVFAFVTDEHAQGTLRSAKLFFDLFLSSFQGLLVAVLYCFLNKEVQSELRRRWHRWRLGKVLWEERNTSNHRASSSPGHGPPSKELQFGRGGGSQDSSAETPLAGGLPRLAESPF

DPP IV = DPP IV (Homo sapiens, UniProt P27487); experiment: Stability against DPP IV enzyme; type: in vitro ADME; conditions: 37° C.; for % degradation of peptidomimetics in 24 h when incubated with DPP-IV enzyme: 2 μM peptidomimetic; for half-life at 2 μM: DPP IV enzyme, pH 7.8, 2 μM peptidomimetic, read-out: half-life (t1/2) when incubated with DPP-IV enzyme
DPP IV, sequence (P27487 whole entry, species assumed): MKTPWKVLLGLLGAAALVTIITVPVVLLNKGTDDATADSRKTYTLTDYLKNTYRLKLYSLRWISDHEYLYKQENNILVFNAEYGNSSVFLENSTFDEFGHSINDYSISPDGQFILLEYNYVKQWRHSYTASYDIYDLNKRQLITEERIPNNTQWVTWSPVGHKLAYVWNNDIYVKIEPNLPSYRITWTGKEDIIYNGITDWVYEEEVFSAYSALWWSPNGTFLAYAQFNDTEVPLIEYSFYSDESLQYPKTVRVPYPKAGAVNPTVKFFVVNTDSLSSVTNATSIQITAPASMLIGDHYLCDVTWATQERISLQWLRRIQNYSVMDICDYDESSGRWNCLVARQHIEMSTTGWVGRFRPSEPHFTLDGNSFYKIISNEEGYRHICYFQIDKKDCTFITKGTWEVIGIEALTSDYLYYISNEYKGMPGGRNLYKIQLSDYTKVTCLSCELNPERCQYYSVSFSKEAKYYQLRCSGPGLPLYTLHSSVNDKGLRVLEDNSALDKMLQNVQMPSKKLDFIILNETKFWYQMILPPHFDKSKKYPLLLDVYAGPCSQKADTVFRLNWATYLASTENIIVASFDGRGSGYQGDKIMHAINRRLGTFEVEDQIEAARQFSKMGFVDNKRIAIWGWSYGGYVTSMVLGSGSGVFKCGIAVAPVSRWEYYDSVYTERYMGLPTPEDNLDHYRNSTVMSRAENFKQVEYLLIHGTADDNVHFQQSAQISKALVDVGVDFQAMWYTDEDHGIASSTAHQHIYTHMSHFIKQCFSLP
Procedure: (§1) Reactions were terminated by the addition of TFA/H2O (15 mL, 10% (v/v)). […] The column was equilibrated with TFA/H20, at a flow rate of 1 mL/min.

[2] = Stability in human plasma; type: in vitro ADME; conditions: 2 μM peptidomimetic, pooled human plasma, 37° C.; for half-life at 2 μM: pH 7.8, read-out: half-life (t1/2) when incubated with human plasma
Procedure: as §1

[3] = Stability in simulated gastric fluid; type: in vitro ADME; conditions: 2 μM peptidomimetic, simulated gastric fluid pH 1.5, 37° C.; for half-life at 2 μM: read-out: half-life (t1/2) when incubated with simulated gastric fluid
Procedure: as §1

[4] = Stability in simulated intestinal fluid; type: in vitro ADME; conditions: 2 μM peptidomimetic, simulated intestinal fluid pH 7.5, 37° C.; for half-life at 2 μM: read-out: half-life (t1/2) when incubated with simulated intestinal fluid
Procedure: as §1

[5] = Stability in liver microsomes; type: in vitro ADME; conditions: 2 μM peptidomimetic, human liver microsomes, 37° C.
Procedure: as §1

CCc1cc(OC)ccc1-c1ccc(CC(NC(=O)[C@H](CC(=O)O)NC(=O)[C@H](CO)NC(=O)[C@@H](NC(=O)C(C)(Cc2ccccc2F)NC(=O)[C@@H](NC(=O)CNC(=O)C(CCC#N)NC(=O)C(C)(C)NC(=O)[C@@H](N)Cc2c[nH]cn2)[C@H](C)O)[C@H](C)O)C(=O)NC(CCCc2ccccc2F)C(N)=O)cc1 (single isomer, unassigned) [compound 116]
Insulin secretion ([1]; 0.1 nM test compd.): 16.4 ± 0.12 pg/µg/h | Insulin secretion ([1]; 1 nM test compd.): 22.7 ± 0.17 pg/µg/h | Insulin secretion ([1]; 10 nM test compd.): 36.6 ± 0.05 pg/µg/h | Human GLP-1 R activity (cAMP release), % activity with respect to control (Human GLP-1 receptor; 1 nM test compound): 55 ± 0.16% | Human GLP-1 R activity (cAMP release), % activity with respect to control (Human GLP-1 receptor; 10 nM test compound): 88 ± 0.13% | Human GLP-1 R activity (cAMP release), % activity with respect to control (Human GLP-1 receptor; 100 nM test compound): 92 ± 0.11% | Human GLP-1 R activity (cAMP release), % activity with respect to control (Human GLP-1 receptor; 1 μM test compound): 99 ± 0.07% | Human GLP-1 R activity (cAMP release), % activity with respect to control (Human GLP-1 receptor; 10 μM test compound): 99 ± 0.09% | Human Glucagon receptor antagonistic activity shown as inhibition of cAMP production of Glucagon peptide (human glucagon receptor; 1 nM test compound): 2 ± 0.03 pmol/ml/μg prt | Human Glucagon receptor antagonistic activity shown as inhibition of cAMP production of Glucagon peptide (human glucagon receptor; 10 nM test compound): 0 pmol/ml/μg prt | Human Glucagon receptor antagonistic activity shown as inhibition of cAMP production of Glucagon peptide (human glucagon receptor; 100 nM test compound): 0 pmol/ml/μg prt | Human Glucagon receptor antagonistic activity shown as inhibition of cAMP production of Glucagon peptide (human glucagon receptor; 1 μM test compound): 0 pmol/ml/μg prt | Human Glucagon receptor antagonistic activity shown as inhibition of cAMP production of Glucagon peptide (human glucagon receptor; 10 μM test compound): 0 pmol/ml/μg prt | % degradation of peptidomimetics in 24 h when incubated with DPP-IV enzyme (DPP IV): 00% | half-life at 2 μM (DPP IV): > 24 h | % degradation of peptidomimetics in 24 h when incubated with human plasma [2]: 00% | half-life at 2 μM [2]: > 24 h | % degradation of peptidomimetics in 24 h when incubated with simulated gastric fluid [3]: 43% | half-life at 2 μM [3]: 4 h | % degradation of peptidomimetics in 24 h when incubated with simulated intestinal fluid [4]: 00% | half-life at 2 μM [4]: > 24 h | % degradation of peptidomimetics in 24 h when incubated with liver microsomes [5]: 84% | half-life at 2 μM ([5]; pH 7.8, read-out: half-life (t1/2) when incubated with liver microsomes): 2 h

CCc1cc(OC)ccc1-c1ccc(CC(NC(=O)[C@H](CC(=O)O)NC(=O)[C@H](CO)NC(=O)[C@@H](NC(=O)C(C)(Cc2ccccc2F)NC(=O)[C@@H](NC(=O)CNC(=O)C(CCC#N)NC(=O)C(C)(C)NC(=O)[C@H](Cc2c[nH]cn2)NC(=O)OC)[C@@H](C)O)[C@@H](C)O)C(=O)NC(CCCc2ccccc2)C(N)=O)cc1 (single isomer, unassigned) [compound 206]
Insulin secretion ([1]; 0.1 nM test compd.): 12.1 ± 0.42 pg/µg/h | Insulin secretion ([1]; 1 nM test compd.): 14.6 ± 0.41 pg/µg/h | Insulin secretion ([1]; 10 nM test compd.): 27.8 ± 0.46 pg/µg/h | Human GLP-1 R activity (cAMP release), % activity with respect to control (Human GLP-1 receptor; 1 nM test compound): 39 ± 0.12% | Human GLP-1 R activity (cAMP release), % activity with respect to control (Human GLP-1 receptor; 10 nM test compound): 80 ± 0.15% | Human GLP-1 R activity (cAMP release), % activity with respect to control (Human GLP-1 receptor; 100 nM test compound): 86 ± 0.18% | Human GLP-1 R activity (cAMP release), % activity with respect to control (Human GLP-1 receptor; 1 μM test compound): 95 ± 0.03% | Human GLP-1 R activity (cAMP release), % activity with respect to control (Human GLP-1 receptor; 10 μM test compound): 98 ± 0.09% | Human Glucagon receptor antagonistic activity shown as inhibition of cAMP production of Glucagon peptide (human glucagon receptor; 1 nM test compound): 0 pmol/ml/μg prt | Human Glucagon receptor antagonistic activity shown as inhibition of cAMP production of Glucagon peptide (human glucagon receptor; 10 nM test compound): 0 pmol/ml/μg prt | Human Glucagon receptor antagonistic activity shown as inhibition of cAMP production of Glucagon peptide (human glucagon receptor; 100 nM test compound): 0 pmol/ml/μg prt | Human Glucagon receptor antagonistic activity shown as inhibition of cAMP production of Glucagon peptide (human glucagon receptor; 1 μM test compound): 0 pmol/ml/μg prt | Human Glucagon receptor antagonistic activity shown as inhibition of cAMP production of Glucagon peptide (human glucagon receptor; 10 μM test compound): 0 pmol/ml/μg prt | % degradation of peptidomimetics in 24 h when incubated with DPP-IV enzyme (DPP IV): 00% | half-life at 2 μM (DPP IV): > 24 h | % degradation of peptidomimetics in 24 h when incubated with human plasma [2]: 00% | half-life at 2 μM [2]: > 24 h | % degradation of peptidomimetics in 24 h when incubated with simulated gastric fluid [3]: 00% | half-life at 2 μM [3]: > 24 h | % degradation of peptidomimetics in 24 h when incubated with simulated intestinal fluid [4]: 00% | half-life at 2 μM [4]: > 24 h | half-life (t1/2) when incubated with liver microsomes [5]: (5) h | % degradation of peptidomimetics in 24 h when incubated with liver microsomes [5]: 32%

From US8883963B2 (Cadila Healthcare Limited, priority 2007, dated 2014)
